Experimental data reported in patent US20260294874A1, “COMPOSITIONS COMPRISING MODULATORS OF RIBONUCLEOPROTEIN GRANULE FORMATION AND DISSOLUTION AND METHODS OF USE THEREOF” (University of Virginia Patent Foundation, priority 2023, published 2026).

System: G3BP1 Y40F-expressing G3BP KO cells
Test: SG formation in G3BP KO U20S cells rescued with G3BP1 Y40F
Assay type: cell-based
Settings: 25 μM, 2 h
Description: G3BP KO and rescue studies. U20S G3BP1/2 double knockout (G3BP KO) cell-line was a kind gift from the C. Brangwynne lab (Princeton University, Princeton, New Jersey, United States of America) and generated as previously described in Kedersha et al., 2016. G3BP KO cells were seeded at 9.0×10^4 in a 24-well plate with 12-mm glass coverslips. Next day, the cells were transfected with […] vectors with 1 μg/mL tetracycline and LIPOFECTAMINE™ 3000 brand transfection reagent according to the manufacturer's protocol (Thermo Fisher Scientific). 20 hours post-transfection, the cells were treated with 25 μM SuTEx probes for 2 hours in DMEM medium without FBS. The cells were then treated with 75 μM NaAsO2 for 30 minutes and fixed with 3% paraformaldehyde in PBS for 15 minutes at RT and washed with PBS twice. The same protocols for IF of HeLa cells and quantification of G3BP1-positive SGs described above were followed thereafter.
To determine whether the cell biological effects mediated by HHS-166 were Y40-dependent, we expressed recombinant G3BP1 WT or Y40 mutant in previously established G3BP1/2 double knockout U20S (G3BP KO) cells (Kedersha et al., 2016; Sanders et al., 2020) and evaluated the resulting effects on SG response to [COMPOUND LEFT OUT]. […]

Compound: COc1ccc(S(=O)(=O)n2cc(C3CCCCC3)nn2)cc1 [HHS-166, 4-Cyclohexyl-1-((4-methoxyphenyl)sulfonyl)-111-1,2,3-triazole]
- effect on SG formation (in words): lost
